Laboratory results as given in patent publication US20220144838A1, “Compounds as Inhibitors of Macrophage Migration Inhibitory Factor” (NANJING IMMUNOPHAGE BIOTECH CO., LTD., priority 2019, published 2022).

Each compound was assayed against T1, MIF (Homo sapiens, UniProt P14174) (assay: MIF tautomerase assay using pHPP as substrate). Conditions: FIGS. 1-5; mean of multiple test results; read-out: pIC50 MIF tautomerase activity (converted).
T1 sequence (P14174 2-115 limits assumed): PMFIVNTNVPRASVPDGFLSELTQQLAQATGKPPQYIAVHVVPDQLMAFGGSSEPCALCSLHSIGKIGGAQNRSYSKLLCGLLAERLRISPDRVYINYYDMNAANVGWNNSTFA
Type: biochemical
Method: Tautomerase Assay Using pHPP as Substrate
This assay measured MIF's tautomerase activity in a cell-free system and was based on the determination of initial rates of the MIF-catalyzed conversion of the ketonic into the enolic tautomer of pHPP. This was achieved by spectrophotometric quantification of the complex between borate and the product of the reaction (enolic pHPP). The substrate was prepared by conversion of the enolic pHPP into its ketonic form. To achieve this, 0.5 M pHPP in methanol was diluted 10-fold with 50 mM sodium acetate buffer at pH 6.0, and then the suspension was shaken for 24 h at room temperature in darkness, and finally stored at 4° C. for not more than 1 week, with 5 min sonication being recommended before use.
Assays were performed in small-volume clear-bottom black 96 or 384-well polystyrene plates (Greiner Bio-One). First, 2 μL of the enzyme solution containing 6 nM of MIF in DPBS, 0.025% w/v BSA, and 300 μM CHAPS was dispensed onto sample and negative control wells using Multidrop Combi with metallic tip cassettes (Thermo Fisher Scientific) previously treated with Sigmacote. Then, 2 μL of the same buffer without MIF was dispensed onto positive control wells. The reaction was started by addition of the following to all wells: 2 μL of substrate solution containing 3 mM ketonic pHPP in 200 mM boric acid, 25 mM sodium phosphate, 0.025% w/v BSA, and 300 μM CHAPS at pH 6.0. In order to remove bubbles, the plate was centrifuged in an Allegra 25R centrifuge (Beckman Coulter, Inc., Brea, Calif.) at 1000 rpm for 2 min at room temperature. Then, the plate was read in an EnVision. Final concentrations of enzyme and substrate were 3 nM and 1.5 mM, respectively. Initial rates were calculated for each well as the slope of the absorbance progress curve.
All exemplified compounds (Examples 1-230) were tested in the MIF tautomerase assay or a similar assay described above. The data mentioned below represents a mean pIC50 value of multiple test results. It is understood that the data illustrated below may have reasonable variation depending on the specific conditions and procedures used by the person conducting the testing.

| SMILES | IC50 [nM] |
| --- | --- |
| CC(C)(C)OC(=O)Cn1cnc2c(-n3nnc4c(C(=O)O)cccc43)nc(N3CCN(c4ccc(O)cc4)CC3)nc21 [Example 100, 1-(9-(2-(tert-butoxy)-2-oxoethyl)-2-(4-(4-hydroxyphenyl)piperazin-1-yl)-9H-purin-6-yl)-1H-benzo[d][1,2,3]triazole-4-carboxylic acid] | ≤ 100 |
| O=C(O)Cn1cnc2c(-n3ncc4c(C(=O)O)cccc43)nc(N3CCN(c4ccc(O)cc4)CC3)nc21 [Example 99, 1-(9-(carboxymethyl)-2-(4-(4-hydroxyphenyl)piperazin-1-yl)-9H-purin-6-yl)-1H-indazole-4-carboxylic acid] | ≤ 100 |

Same assay, conditions: inhibition of the MIF enzyme in vitro; mean of multiple test results; read-out: Tautomerase Inhibition pIC50 (converted)

| SMILES | IC50 [nM] |
| --- | --- |
| CC(C)(C)OC(=O)Cn1cnc2c(-n3nnc4c(C(=O)O)cccc43)nc(N3CCN(c4ccc(O)cc4)CC3)nc21 [Example 100, 1-(9-(2-(tert-butoxy)-2-oxoethyl)-2-(4-(4-hydroxyphenyl)piperazin-1-yl)-9H-purin-6-yl)-1H-benzo[d][1,2,3]triazole-4-carboxylic acid] | 10 to 97.7 |
| Nc1nc(N2CCN(c3ccc(O)cc3)CC2)nc2c1ncn2-c1ccc(F)cc1 [Example 73, 4-(4-(6-amino-9-(4-fluorophenyl)-9H-purin-2-yl)piperazin-1-yl)phenol] | > 10000 |
| O=C(O)Cn1cnc2c(-n3ncc4c(C(=O)O)cccc43)nc(N3CCN(c4ccc(O)cc4)CC3)nc21 [Example 99, 1-(9-(carboxymethyl)-2-(4-(4-hydroxyphenyl)piperazin-1-yl)-9H-purin-6-yl)-1H-indazole-4-carboxylic acid] | 10 to 97.7 |
| Oc1ccc(N2CCN(c3cc(-n4ncc5ccccc54)n4ncc(-c5cccnc5)c4n3)CC2)cc1 [Example 14, 4-(4-(7-(1H-indazol-1-yl)-3-(pyridin-3-yl)pyrazolo[1,5-a]pyrimidin-5-yl)piperazin-1-yl)phenol] | 1000 to 9770 |
| Nc1nc(N2CCN(c3ccc(O)cc3)CC2)nc2c1ncn2-c1cccc(-c2ccccc2)c1 [Example 78, 4-(4-(9-([1,1′-biphenyl]-3-yl)-6-amino-9H-purin-2-yl)piperazin-1-yl)phenol] | 1000 to 9770 |
| Cc1nc(N2CCN(c3ccc(O)cc3)CC2)nc2c1ncn2-c1cccnc1O [Example 60, 3-(2-(4-(4-hydroxyphenyl)piperazin-1-yl)-6-methyl-9H-purin-9-yl)pyridin-2-ol] | 100 to 977 |
| N#Cc1ccc(-n2cnc3c(N)nc(N4CCN(c5ccc(O)cc5)CC4)nc32)cc1 [Example 74, 4-(6-amino-2-(4-(4-hydroxyphenyl)piperazin-1-yl)-9H-purin-9-yl)benzonitrile] | 100 to 977 |
| O=C(O)Cn1cnc2c(-n3nnc4cc(Cl)ccc43)nc(N3CCN(c4ccc(O)cc4)CC3)nc21 [Example 19, 2-(6-(5-chloro-1H-benzo[d][1,2,3]triazol-1-yl)-2-(4-(4-hydroxyphenyl)piperazin-1-yl)-9H-purin-9-yl)acetic acid] | 1000 to 9770 |
| Cc1ccncc1-n1cnc2c(N)nc(N3CCN(c4ccc(O)cc4)CC3)nc21 [Example 67, 4-(4-(6-amino-9-(4-methylpyridin-3-yl)-9H-purin-2-yl)piperazin-1-yl)phenol] | 1000 to 9770 |
| Cc1ccccc1-n1cnc2c(N)nc(N3CCN(c4ccc(O)cc4)CC3)nc21 [Example 76, 4-(4-(6-amino-9-(o-tolyl)-9H-purin-2-yl)piperazin-1-yl)phenol] | > 10000 |
| Cc1nc(N2CCN(c3ccc(O)cc3)CC2)nc2c1ncn2-c1cc(N2CCN(c3ccc(O)cc3)CC2)cnn1 [Example 64, 4-(4-(6-(2-(4-(4-hydroxyphenyl)piperazin-1-yl)-6-methyl-9H-purin-9-yl)pyridazin-4-yl)piperazin-1-yl)phenol] | 1000 to 9770 |
| O=C(O)Cn1cnc2nc(N3CCN(c4ccc(O)cc4)CC3)nc(-n3ncc4ccccc43)c21 [Example 46, 2-(2-(4-(4-hydroxyphenyl)piperazin-1-yl)-6-(1H-indazol-1-yl)-7H-purin-7-yl)acetic acid] | 100 to 977 |
| Nc1nc(N2CCN(c3ccc(O)cc3)CC2)nc2c1ncn2-c1ccc(Cl)cc1Cl [Example 69, 4-(4-(6-amino-9-(2,4-dichlorophenyl)-9H-purin-2-yl)piperazin-1-yl)phenol] | > 10000 |
| O=C(O)Cn1cnc2c(N3Cc4ccccc4C3)nc(N3CCN(c4ccc(O)cc4)CC3)nc21 [Example 26, 2-(2-(4-(4-hydroxyphenyl)piperazin-1-yl)-6-(isoindolin-2-yl)-9H-purin-9-yl)acetic acid] | 100 to 977 |

Results, then the compound that gave them:

| IC50 [nM] | SMILES |
| --- | --- |
| 1000 to 9770 | OCCn1cnc2c(-n3ncc4ccccc43)nc(N3CCC(O)(c4ccc(F)cc4)CC3)nc21 [Example 224, 4-(4-fluorophenyl)-1-(9-(2-hydroxyethyl)-6-(1H-indazol-1-yl)-9H-purin-2-yl)piperidin-4-ol] |
| > 10000 | CCC(CO)N(C)c1nc(N2CCN(c3ccc(O)cc3)CC2)nc2c1ncn2-c1cccnc1 (stereo not shown) [Example 183, 4-(4-(6-((1-hydroxybutan-2-yl)(methyl)amino)-9-(pyridin-3-yl)-9H-purin-2-yl)piperazin-1-yl)phenol] |
| 10 to 97.7 | CC1(C(=O)O)CCCN1c1nc(N2CCN(c3ccc(O)cc3)CC2)nc2c1ncn2-c1ccncc1 (stereo not shown) [Example 172, 1-(2-(4-(4-hydroxyphenyl)piperazin-1-yl)-9-(pyridin-4-yl)-9H-purin-6-yl)-2-methylpyrrolidine-2-carboxylic acid] |
| 10 to 97.7 | O=C(O)Cn1cnc2c(-n3ncc4ccccc43)nc(N3CC(O)(c4ccc(O)cc4)C3)nc21 [Example 216, 2-(2-(3-hydroxy-3-(4-hydroxyphenyl)azetidin-1-yl)-6-(1H-indazol-1-yl)-9H-purin-9-yl)acetic acid] |
| 1000 to 9770 | OCCn1cnc2c(-n3ncc4ccccc43)nc(N3CC(O)(c4ccccc4)C3)nc21 [Example 225, 1-(9-(2-hydroxyethyl)-6-(1H-indazol-1-yl)-9H-purin-2-yl)-3-phenylazetidin-3-ol] |
| 100 to 977 | CC(=O)NCCn1cnc2c(-n3ncc4ccccc43)nc(N3CCN(c4ccc(O)cc4)CC3)nc21 [Example 138, N-(2-(2-(4-(4-hydroxyphenyl)piperazin-1-yl)-6-(1H-indazol-1-yl)-9H-purin-9-yl)ethyl)acetamide] |
| 1000 to 9770 | Nc1nc(N2CCC(O)(c3ccc(F)cc3)CC2)nc2c1ncn2-c1ccncc1 [Example 210, 1-(6-amino-9-(pyridin-4-yl)-9H-purin-2-yl)-4-(4-fluorophenyl)piperidin-4-ol] |
| 100 to 977 | Oc1ccc(N2CCN(c3nc(-n4ncc5ccccc54)c4ncn(Cc5ccccn5)c4n3)CC2)cc1 [Example 116, 4-(4-(6-(1H-indazol-1-yl)-9-(pyridin-2-ylmethyl)-9H-purin-2-yl)piperazin-1-yl)phenol] |
| 10 to 97.7 | O=C(O)CNc1nc(N2CCN(c3ccc(O)cc3)CC2)nc2c1ncn2-c1ccncc1 [Example 163, (2-(4-(4-hydroxyphenyl)piperazin-1-yl)-9-(pyridin-4-yl)-9H-purin-6-yl)glycine] |
| > 10000 | Nc1nc(N2CCCN(c3ccccc3)CC2)nc2c1ncn2-c1ccncc1 [Example 227, 2-(4-phenyl-1,4-diazepan-1-yl)-9-(pyridin-4-yl)-9H-purin-6-amine] |
| > 10000 | Nc1nc(N2CCN(c3ccc(CO)cn3)CC2)nc2c1ncn2-c1ccncc1 [Example 196, (6-(4-(6-amino-9-(pyridin-4-yl)-9H-purin-2-yl)piperazin-1-yl)pyridin-3-yl)methanol] |
| 100 to 977 | OC[C@@H](COCc1ccccc1)Nc1nc(N2CCN(c3ccc(O)cc3)CC2)nc2c1ncn2-c1ccncc1 [Example 176, (S)-4-(4-(6-((1-(benzyloxy)-3-hydroxypropan-2-yl)amino)-9-(pyridin-4-yl)-9H-purin-2-yl)piperazin-1-yl)phenol] |
| > 10000 | Nc1nc(N2CCN(c3ccc(O)cc3)CC2)nc2c1ncn2C1CCNCC1 [Example 188, 4-(4-(6-amino-9-(piperidin-4-yl)-9H-purin-2-yl)piperazin-1-yl)phenol] |
| 10 to 97.7 | O=C(O)CCN(CCO)c1nc(N2CCN(c3ccc(O)cc3)CC2)nc2c1ncn2-c1ccncc1 [Example 168, 3-((2-hydroxyethyl)(2-(4-(4-hydroxyphenyl)piperazin-1-yl)-9-(pyridin-4-yl)-9H-purin-6-yl)amino)propanoic acid] |
| > 10000 | NC(=O)c1ccc(N2CCN(c3nc(N)c4ncn(-c5ccncc5)c4n3)CC2)nc1 [Example 194, 6-(4-(6-amino-9-(pyridin-4-yl)-9H-purin-2-yl)piperazin-1-yl)nicotinamide] |
| 10 to 97.7 | Cc1nc(N2CCN(c3ccc(O)cc3)CC2)nc2c1ncn2-c1cccnc1 [Example 229, 4-(4-(6-methyl-9-(pyridin-3-yl)-9H-purin-2-yl)piperazin-1-yl)phenol] |
| 10 to 97.7 | Nc1nc(N2CCC(O)(c3ccc(O)cc3)CC2)nc2c1ncn2-c1ccncc1 [Example 155, 1-(6-amino-9-(pyridin-4-yl)-9H-purin-2-yl)-4-(4-hydroxyphenyl)piperidin-4-ol] |
| 10 to 97.7 | O=C(O)CCCCn1cnc2c(-n3ncc4ccccc43)nc(N3CCN(c4ccc(O)cn4)CC3)nc21 [Example 149, 5-(2-(4-(5-hydroxypyridin-2-yl)piperazin-1-yl)-6-(1H-indazol-1-yl)-9H-purin-9-yl)pentanoic acid] |
